Laboratory results as given in patent publication US6994954B2, “System for organ and tissue preservation and hypothermic blood substitution” (Organ Recovery Systems, Inc., priority 2000, dated 2006).

How the values were obtained:
[1] = system: A10 smooth muscle cells; assay: Cryopreservation of A10 cells with DMSO in vehicle solution, Alamar Blue; type: cell-based; conditions: freezing and thawing
Method: (§1) The same system as that described above for cells in microtiter plates was used to evaluate a preferred embodiment of the exemplary High-K Intracellular-base solution as a new carrier solution for cryoprotective additives (CPA). Specifically, a phosphate-free formulation of the new High-K solution was prepared to avoid the known precipitation of divalent cation phosphates in the presence of the cryoprotectant DMSO at low temperatures. Cell survival was compared after freezing and thawing in the presence of a range of concentrations of DMSO prepared in either the new phosphate-free HK-cryoprotectant vehicle solution (HK-CV), or EuroCollins medium. EuroCollins is an organ preservation solution that has also been used in the field of cryobiology as a vehicle solution for cryoprotectants.
(§2) Cells were plated at 2×10^4 cells/well and after overnight incubation regular culture medium was replaced with the experimental CPA mixtures using the following protocol: Plates were cooled to −80° C. at a controlled rate (1° C./min) and stored overnight at −135° C. The plates were thawed using a two-step warming protocol and the CPA was diluted using mannitol as an osmotic buffer. Cell viability was assessed using the Alamar Blue assay of cellular metabolic activity at 37° C. FIGS. 15 and 16 show the comparative viability of two cell types after cryopreservation in the respective media. […]

[2] = system: bovine corneal endothelial (BCE) cells; assay: Cryopreservation of BCE cells with DMSO in vehicle solution, Alamar Blue; type: cell-based; conditions: freezing and thawing
Method: as §1, §2

C[S+](C)[O-] [DMSO, Dimethylsulfoxide]
DMSO concentration giving optimum survival [1]: 1 to 2 M | DMSO concentration giving optimum survival [2]: 1 to 2 M
